Data reported in patent US11639350B2, “Heteroaryldihydropyrimidine derivatives and methods of treating hepatitis B infections” (Janssen Pharmaceutica NV, priority 2018, dated 2023).
Like-named read-outs stand apart in the source and are kept apart here.

How the values were obtained:
[1] = Cytotoxicity determination in HepG2.2.15 cells (CCK-8); assay type: cell-based; conditions: human, 6 days of compound treatment, CCK-8, highest concentration 100 μM
Experimental: (§1) HBV replication inhibition by the compounds of this invention as well as cytotoxicity determination was determined in cells infected or transfected with HBV, or cells with stably integrated HBV, such as HepG2.2.15 cells (Sells et al. 1987). The method used herein is as follows.
(§2) The HepG2.2.15 cells were seeded into 96-well plate in 2% FBS (Fetal bovine serum) culture medium at the density of 40,000 cells/well and 5,000 cells/well for HBV inhibitory activity and cytotoxicity determination, respectively. After seeding, the cell plates were incubated at 37° C., 5% CO2 overnight. The next day, medium containing compounds were added to treat the cells for 6 days with medium refreshed once in the middle of the treatment. Eight dose points with 3 folds dilution of each compound were adopted and the highest concentration of the compounds was 10 μM and 100 μM for HBV inhibitory activity and cytotoxicity determination, respectively.
After 6 days of compounds treatment, 20 μl CCK-8 (Cell Counting Kit-8 (Tianjin Biolite company)) reagents were added to each well of cytotoxicity assay plates, the plate was incubated at 37° C., 5% CO2 for 2.5 hours and the absorbance at 450 nm wavelength was measured, at the same time the absorbance at 630 nm wavelength was read as reference.
(§3) EC50 and CC50 values are calculated by the GraphPad Prism software and are averages where multiple measurements were made. EC50 values for the other exemplified compounds were either not measured or higher than 1 μM.

HBV = HBV inhibitory activity: HBV DNA in the culture medium of HepG2.2.15 cells by q-PCR; assay type: cell-based; conditions: HepG2.2.15 cells, 6 days of compound treatment, HBV DNA in culture medium by q-PCR, highest concentration 10 μM, read-out: EC50
Experimental: as §1, §2
The HBV DAN change in the cell culture medium induced by the compounds was measured by q-PCR (quantitative polymerase chain reaction) method. The HBV DNA in the culture medium was extracted using QIAamp 96 DNA Blood Kit according to the manual and then quantified by q-PCR using the primers and probe in the table below: […]
as §3

[2] = Hepatitis B virus, HepG2.2.15, 144 h

SMILES | CC50 at 6 days [1] [µM] | EC50 (HBV; [2]) [µM] | EC50 (HBV) [µM]
COC(=O)C1=C(C2CCN(S(=O)(=O)CCC(N)=O)CC2)NC(c2nccs2)=NC1c1ccc(F)cc1Cl (stereo not drawn) [Compound 457, Methyl 6-(1-((3-amino-3-oxopropyl)sulfonyl)piperidin-4-yl)-4-(2-chloro-4-fluorophenyl)-2-(thiazol-2-yl)-1,4-dihydropyrimidine-5-carboxylate] | 63.4 | 0.054 | –
COC(=O)C1=C([C@H]2CC[C@H](C(=O)O)CC2)NC(c2nccs2)=NC1c1ccc(F)cc1Br (stereo partly drawn) [Compound 225, (trans)-4-(6-(2-Bromo-4-fluorophenyl)-5-(methoxycarbonyl)-2-(thiazol-2-yl)-3,6-dihydropyrimidin-4-yl)cyclohexanecarboxylic Acid] | ≥ 100 | 0.087 | –
COC(=O)C1=C(C2CCN(S(=O)(=O)CCO)CC2)NC(c2nccs2)=NC1c1ccc(F)c(F)c1Cl (stereo not drawn) [Compound 474, methyl 4-(2-chloro-3,4-difluorophenyl)-6-(1-((2-hydroxyethyl)sulfonyl)piperidin-4-yl)-2-(thiazol-2-yl)-1,4-dihydropyrimidine-5-carboxylate] | 18.3 | 0.007 | –
COC(=O)C1=C(C2CCN(S(C)(=O)=O)CC2)NC(c2nccs2)=NC1c1ccc(F)cc1Br (single isomer, unassigned) [Compound 120A, Methyl 4-(2-bromo-4-fluorophenyl)-6-(1-(methylsulfonyl)-piperidin-4-yl)-2-(thiazol-2-yl)-1,4-dihydropyrimidine-5-carboxylate] | 31.7 | – | 0.35
COC(=O)C1=C([C@H]2CC[C@H](C(=O)OC)CC2)NC(c2nc(C)cs2)=NC1c1ccc(F)cc1Br (single isomer, unassigned) [Compound 239X, (trans)-Methyl 4-(2-bromo-4-fluorophenyl)-6-(4-(methoxycarbonyl)cyclohexyl)-2-(4-methylthiazol-2-yl)-1,4-dihydropyrimidine-5-carboxylate] | 14.8 | 0.149 | –
COC(=O)C1=C([C@H]2CC[C@@H](C(=O)OC)O2)NC(c2nccs2)=NC1c1cccc(F)c1Cl (single isomer, unassigned) [Compound 73H, cis-Methyl 4-(2-chloro-3-fluorophenyl)-6-(5-(methoxycarbonyl)-tetrahydro-furan-2-yl)-2-(thiazol-2-yl)-1,4-dihydropyrimidine-5-carboxylate] | 32.9 | 0.35 | –
COC(=O)C1=C(C2CCN(S(=O)(=O)C[C@H]3CC[C@H](C(=O)O)CC3)CC2)NC(c2nccs2)=NC1c1ccc(F)c(F)c1Cl (stereo partly drawn) [Compound 425, trans-4-(((4-(6-(2-chloro-3,4-difluorophenyl)-5-(methoxycarbonyl)-2-(thiazol-2-yl)-3,6-dihydropyrimidin-4-yl)piperidinyl)sulfonyl)methyl)cyclohexane-1-carboxylic Acid] | 13.3 | 0.006 | –
COC(=O)C1=C([C@H]2CC[C@H](S(=O)(=O)N(C)C)CC2)NC(c2nccs2)=NC1c1ccc(F)c(F)c1Cl (single isomer, unassigned) [Compound 233C, (trans)-methyl 4-(2-chloro-3,4-difluorophenyl)-6-(4-(N,N-dimethylsulfamoyl)cyclohexyl)-2-(thiazol-2-yl)-1,4-dihydropyrimidine-5-carboxylate] | 5.6 | 0.013 | –
COC(=O)C1=C(C2CCN(S(=O)(=O)[C@H]3CC[C@H](C(=O)O)C3)CC2)NC(c2nccs2)=NC1c1ccc(F)cc1Cl (relative stereo) [Compound 311A, (trans)-3-((4-(6-(2-Chloro-4-fluorophenyl)-5-(methoxycarbonyl)-2-(thiazol-2-yl)-3,6-dihydropyrimidin-4-yl)piperidin-1-yl)sulfonyl)-cyclopentanecarboxylic Acid] | > 100 | 0.089 | –
